According to patent US7799530B2, “Genetic polymorphisms associated with cardiovascular disorders and drug response, methods of detection and uses thereof” (Celera Corporation, priority 2005, dated 2010):

System: MI / coronary events in Scottish men with hypercholesterolemia
Experiment: WOSCOPS nested case-control study: MI/CHD in pravastatin- vs placebo-treated patients stratified by SNP genotype
Type: in vivo, human
Conditions: for OR, CHD case vs control, Matched: placebo = ref 1.00, cases and controls matched for age and smoking; for OR, CHD case vs control, Adjusted: placebo = ref 1.00, matched and adjusted for hypertension, diabetes, BMI, LDL-C, HDL-C; for Risk Reduction by Statin (Pravastatin vs. Placebo) OR: odds ratio of MI, pravastatin- vs placebo-treated, heterozygous carriers of hCV3054799 only
From the text: In order to identify genetic markers associated with acute coronary events (e.g. MI, stroke, unstable angina, congestive heart failure, etc.) or response to statin treatment for the prevention of coronary events, samples were genotyped in two clinical trials: the Cholesterol and Recurrent Events (CARE) study (a randomized multicentral double-blinded trial on secondary prevention of acute coronary events with pravastatin; Sacks et al., Am. J. Cardiol. 68: 1436-1446[1991]), and the West of Scotland Coronary Prevention Study (WOSCOPS) study (Shepherd et al., N Eng J Med 333 (20), pp. 1301-7, Nov. 16, 1995; Packard et al., N Eng J Med 343 (16), pp. 1148-55, Oct. 19, 2000).
Genetic markers identified as associated with acute coronary events or response to statin treatment for the prevention of coronary events in the CARE samples were also genotyped in a second sample set, the West of Scotland Coronary Prevention Study (WOSCOPS). The design of the original WOSCOPS cohort and the nested case-control study have been described (Shepherd et al., N Eng J Med 333 (20), pp. 1301-7, Nov. 16, 1995; Packard et al., N Eng J Med 343 (16), pp. 1148-55, Oct. 19, 2000). The objective of the WOSCOPS trial was to assess pravastatin efficacy at reducing risk of primary MI or coronary death among Scottish men with hypercholesterolemia (fasting LDL cholesterol>155 mg/dl). Participants in the WOSCOPS study were 45-64 years of age and followed for an average of 4.9 years for coronary events. The nested case-control study included as cases all WOSCOPS patients who experienced a coronary event (confirmed nonfatal MI, death from coronary heart disease, or a revascularization procedure; N=580). Controls were age- and smoking-matched unaffected patients. All individuals included in the study had signed informed consent forms and the study protocol was approved by the IRBs. DNA was extracted and genotyped as described above.
The association of hCV3054799 with risk of MI in patients was tested in two clinical trials, CARE and WOSCOPS, with patients receiving treatment with either pravastatin or placebo. CARE was a secondary prevention trial (i.e., recurrent MI as endpoint) and WOSCOPS was a primary prevention trial. […] The analysis in WOSCOPS (a nested case-control study) was performed using the MI as an endpoint.
In both the CARE and WOSCOPS studies, an association analysis was performed for each of the two modes of inheritance, dominant and recessive. Additionally, a genotypic test (heterozygote v. major homozygote) and an allelic test of association were performed using Fisher's exact method. Estimates of odds ratios and corresponding ninety-five percent confidence intervals were calculated. The significance of the disease association for hCV3054799 with the overall (unstratified) population, and with the placebo- or pravastatin-treated patients are indicated in Table 8. […] In patients that are heterozygous carriers of the minor allele, the odds ratio for risk of MI relative to patients with no minor allele is 1.7, with a P value below 0.01 both studies. The odds ratio is approximately the same (1.6-1.7) when calculated for the dominant mode of inheritance (a genotype with one or two minor alleles vs. none), with a P value less than or equal to 0.01 in both studies.
Also analyzed was whether hCV3054799 is associated with response to statin treatment (specifically, a decreased risk of MI as a result of treatment with pravastatin). […] Heterozygous carriers in the placebo treatment group were used as a reference in determining the odds ratios. […] For comparison, the odds ratio for association of this SNP with MI risk in placebo-treated carriers is also presented, under the heading “MI/RMI risk estimation” (data from Table 8; again, heterozygous carriers).
In analyzing the CARE patients, statistical analysis was performed with SAS version 9. […]

CC[C@H](C)C(=O)O[C@H]1C[C@H](O)C=C2C=C[C@H](C)[C@H](CC[C@@H](O)C[C@@H](O)CC(=O)O)[C@H]21 [pravastatin]
OR, CHD case vs control, Matched (KIF6 hCV3054799 AA): 0.94
OR, CHD case vs control, Adjusted (KIF6 hCV3054799 AA): 0.91
OR, CHD case vs control, Matched (KIF6 hCV3054799 GG + GA): 0.50
OR, CHD case vs control, Adjusted (KIF6 hCV3054799 GG + GA): 0.50
Risk Reduction by Statin (Pravastatin vs. Placebo) OR: approximately 0.5
Risk Reduction by Statin (Pravastatin vs. Placebo) OR (listed as Pravastatin): 0.45
